From patent US20170226139A1, “CRYSTALLINE SALTS OF (Z)-O-OCTADEC-9-EN-1-YL O,O-DIHYDROGEN PHOSPHOROTHIOATE” (priority 2013, published 2017) come the findings set out here.

One series addresses Human LPA2 (Homo sapiens, UniProt Q9HBW0). Description: Calcium-mobilization assay (FURA-2), human LPA2 transfected cells. The format is cell-based. The arrangement: expressed in transfected cells; host or cells: mouse embryonic fibroblasts (MEF) or rat hepatoma RH7777. As to the method:
We investigated structure-activity relationships across species, LPAR subtypes and between Rx100 and two known process impurities encountered in manufacture: Rx103 (‘E’ isomer) and Rx200 (oleyl phosphate and impurity, which can be an Rx100 degradant along with oleyl alcohol). Rx100, Rx103, Rx200 and native LPA were investigated at different human LPAR subtypes. In addition, the activity of these compounds was evaluated at LPA2 receptors from the rhesus, rat and mouse species. Human LPA1/2/3 subtypes were transfected into mouse embryonic fibroblasts (MEF) or rat hepatoma cells (RH7777)—both of which are normally non-responsive or null to LPA. Human LPA4 was transfected into Chinese hamster ovary (CHO) cells and LPA5 into the B103 neuroblastoma cell line. […] The B103 rat neuroblastoma cell line is endogenously nonresponsive to LPA but expresses heterologous LPA5 receptors well. […] LPAR activation elicits a G-protein-mediated transient rise in intracellular calcium level that is proportional to the concentration of LPA applied. The intracellular calcium level was quantified by the calcium-selective fluorescent indicator FURA-2 (e.g., increased intracellular calcium surge=increased fluorescence).

In series [1] the test system is male telemetered cynomolgus monkeys. Description: Cardiovascular safety pharmacology in telemetered monkeys. Format: in vivo. The settings on record: SC 0.1, 0.5 and 2.0 mg/kg as the free acid. The procedure:
Four male telemetered cynomolgus monkeys were selected, and assigned via a Latin Square design to receive four doses of Rx100.lysine or vehicle via subcutaneous injection at doses of 0 (10 mM histidine in sterile water for injection, USP), 0.1, 0.5 and 2.0 mg/kg as the free acid. Parameters evaluated include clinical observations, body temperature, arterial pressure and ECG evaluations (PR, QT, QRS durations). QTc values were calculated based on data collected for each animal.

Series [2] is described as follows: Single subcutaneous dose pharmacokinetics in irradiated and unirradiated mice. The format is in vivo, C57BL/6 mice. The settings on record: single SC dose 1 mg/kg, 1 mg/kg; for AUC(0-inf): read-out: AUCINF_obs. The text has this: We performed a randomized, open-label, single-dose, four-arm, subcutaneously-administered, study of the pharmacokinetics of Rx100.Ammonia and Rx100.Lysine in irradiated and unirradiated C57BL/6 mice to evaluate the effect of salt form and irradiation on extravascular pharmacokinetics. The purpose of this study was to evaluate the pharmacokinetic parameters for two salt forms of Rx100 (Lysine and Ammonia) in healthy and PB irradiated (IR) mice when administered as a single dose. Each animal received a 1 mg/kg dose of Rx100.Lysine or Rx100.Ammonia. The animals receiving Rx100.Lysine or Rx100.Ammonia after irradiation were dosed 26±2 hours after irradiation and sampling times are relative to the time of test article dosing.
More specifically, randomized, acclimated, C57BL/6 mice were administered Rx100.Lysine or Rx100.Ammonia (10 mM L-histidine in sterile water for injection, or 1% ethanol, 2% propylene glycol in PBS, respectively) as a single dose as indicated in Table 25.
Blood was collected from 4 male and 4 female mice via cardiac puncture at pre-defined time points relative to test article dosing (0.5, 1, 2, 4, 6, 8, 12, 18, 24, and 48 hours) and collected into micro plasma separator vials (BD Microtainer®) containing lithium heparin. Blood was maintained on ice until centrifugation and subsequent processing. Blood draws were a terminal procedure. Plasma was frozen at −80° C. until submitted for bioanalysis. Sample collection was completed in September 2012. Samples were transferred to Covance in December 2013, and sample analysis was complete in the first quarter of 2014.
A total of 160 male and 160 female C57BL/6 10-12 week old mice were used in this study. Animals were randomized with weight stratification into treatment groups and given a second ear tag. Animals were acclimated for 16-19 days (See below Table 26). Prior to irradiation or dosing (in non-irradiated groups), animals were weighed a second time which was the basis of the animal dose delivered.
TLDs were used for dosimetry and confirmation of the delivered dose. TLDs were analyzed by MD Anderson and have a +/−5% accuracy. A total of 19 dosimeters were used with a mean measured dose of 15.33±0.166 Gy.
Analysis was performed using qualified and validated Phoenix® WinNonlin® Software. The final data provided was imported into Phoenix® WinNonlin®. All data presented in the tables and figures within the results section of this report were generated using the validated Phoenix® WinNonlin® Software.

Series [3] can be described thus: Evaporative crystallization tests, XRPD. The format is physicochemical. The settings on record: evaporated to dryness under vacuum at ambient conditions. As to the method: Third, Evaporative Crystallization tests were performed. Based on the short term slurry experiments, all samples which experienced full dissolution were utilized for evaporative crystallizations. Samples were evaporated to dryness under vacuum at ambient conditions.

The mark [4] stands for this setting: + IR (irradiated mice), whole group (not split by gender), listed as Rx100.Lysine.
The mark [5] stands for this setting: healthy mice, F, listed as Rx100.Lysine.
[6] abbreviates: healthy mice, M, listed as Rx100.Lysine.
Setting [7] is: healthy mice, whole group (not split by gender), listed as Rx100.Lysine.
Where [8] appears, read: irradiated mice (15.6 Gy, dosed 26 ± 2 h after), F, listed as Rx100.Lysine.
The mark [9] stands for this setting: irradiated mice (15.6 Gy, dosed 26 ± 2 h after), M, listed as Rx100.Lysine.

Read-outs that look alike come from different tables or passages of the source.

Chain of Human LPA2 (Q9HBW0 whole entry): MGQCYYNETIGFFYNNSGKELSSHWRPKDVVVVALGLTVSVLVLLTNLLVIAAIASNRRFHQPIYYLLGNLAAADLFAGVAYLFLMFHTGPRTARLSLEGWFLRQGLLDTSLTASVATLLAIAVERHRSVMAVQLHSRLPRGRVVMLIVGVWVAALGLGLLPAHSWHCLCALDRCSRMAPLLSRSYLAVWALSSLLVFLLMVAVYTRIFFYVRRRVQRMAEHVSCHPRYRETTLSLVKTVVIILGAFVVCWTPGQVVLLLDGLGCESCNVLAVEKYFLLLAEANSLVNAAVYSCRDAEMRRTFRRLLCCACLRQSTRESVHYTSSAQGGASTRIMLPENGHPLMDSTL

Broadly, the EC50 is the concentration giving half of the maximal effect. The term Emax denotes the greatest response seen or fitted, relative to the assay's reference. On to `CCCCCCCC/C=C\CCCCCCCCOP(O)(O)=S` [Rx100, (Z)—O-octadec-9-en-1-yl O,O-dihydrogen phosphorothioate], for which the half-maximal effective concentration (EC50) on Human LPA2 turned out to be 0.124 µM. In addition, the Emax at Human LPA2 (read-out: Emax (% of LPA)) is 100%.
The term Cmax denotes the peak of the concentration-time curve. The AUC is the area under the concentration-time curve, a measure of exposure. On to `CCCCCCCC/C=C\CCCCCCCCOP(O)(O)=S` [Rx100.L-Lysine, (Z)—O-octadec-9-en-1-yl O,O-dihydrogen phosphorothioate], for which, in series [1], the ECG intervals entry is “no meaningful changes in PR, QRS, QT and QTc”. In series [1], the heart rate result is “slight dose-dependent increase in heart rate”. For the same compound, the Cmax was found to be 299 ng/mL in series [2] (IR males, listed as Rx100.Lysine); 323 ng/mL in series [2] (both sexes, C57BL/6, mouse, plasma, sc, + IR (irradiated mice), whole group (not split by gender), read-out: Cmax); 512 ng/mL in series [2] (both sexes, C57BL/6, mouse, plasma, sc, healthy mice, whole group (not split by gender), read-out: Cmax); 355 ng/mL in series [2] (female, C57BL/6, mouse, plasma, sc, IR females, read-out: Cmax); 455 ng/mL in series [2] (female, C57BL/6, mouse, plasma, sc, healthy females, read-out: Cmax); 454 ng/mL in series [2] (female, C57BL/6, mouse, plasma, sc, healthy mice, F, read-out: Cmax). Also, the Cmax in series [2] (female, C57BL/6, mouse, plasma, sc, irradiated mice (15.6 Gy, dosed 26 ± 2 h after), F, read-out: Cmax) was 355 ng/mL; in series [2] (male, C57BL/6, mouse, plasma, sc, healthy males, read-out: Cmax), 570 ng/mL; in series [2] (male, C57BL/6, mouse, plasma, sc, healthy mice, M, read-out: Cmax), 570 ng/mL; in series [2] (setting [9]), 298.75 ng/mL. Besides, the AUC(0-inf) in series [2] (both sexes, C57BL/6, mouse, plasma, sc, + IR (irradiated mice), whole group (not split by gender)) was determined as 1210 ng·h/mL; in series [2] (both sexes, C57BL/6, mouse, plasma, sc, healthy mice, whole group (not split by gender)), 1660 ng·h/mL; in series [2] (female, C57BL/6, mouse, plasma, sc, healthy mice, F), 1590 ng·h/mL; in series [2] (female, C57BL/6, mouse, plasma, sc, irradiated mice (15.6 Gy, dosed 26 ± 2 h after), F), 1240 ng·h/mL; in series [2] (male, C57BL/6, mouse, plasma, sc, healthy mice, M), 1750 ng·h/mL; in series [2] (male, C57BL/6, mouse, plasma, sc, irradiated mice (15.6 Gy, dosed 26 ± 2 h after), M), 1170 ng·h/mL. Also, the AUC in series [2] (female, C57BL/6, mouse, plasma, sc, IR females, read-out: AUC) was determined as 1240 ng·h/mL; in series [2] (female, C57BL/6, mouse, plasma, sc, healthy females, read-out: exposure (AUC)), 1590 ng·h/mL; in series [2] (male, C57BL/6, mouse, plasma, sc, IR males, read-out: AUC), 1170 ng·h/mL; in series [2] (male, C57BL/6, mouse, plasma, sc, healthy males, read-out: AUC), 1750 ng·h/mL. Also, the CLss_F stood at 13.822 mL/min/kg in series [2] (setting [4]); 10.462 mL/min/kg in series [2] (setting [5]); 9.5183 mL/min/kg in series [2] (setting [6]); 10.032 mL/min/kg in series [2] (setting [7]); 13.466 mL/min/kg in series [2] (setting [8]); 14.264 mL/min/kg in series [2] (setting [9]). In addition, the HL_Lambda_z in series [2] (setting [4]) is reported as 1.44 h; in series [2] (setting [5]), 1.84 h; in series [2] (setting [6]), 1.91 h; in series [2] (setting [7]), 1.16 h; in series [2] (setting [8]), 1.87 h; in series [2] (setting [9]), 1.32 h. The Vz_F in series [2] (setting [4]) was 1.72242 L/kg; in series [2] (setting [5]), 1.66432 L/kg; in series [2] (setting [6]), 1.57087 L/kg; in series [2] (setting [7]), 1.00622 L/kg; in series [2] (setting [8]) it was 2.17384 L/kg; in series [2] (setting [9]), 1.62547 L/kg. Further, the “Form by XRPD after evaporative crystallization” value in series [3] is recorded as “no change in form”.
